Results as given in ChEMBL document CHEMBL1201862, “PubChem BioAssay data set” (2004).
Activity calls are given as the source filed them.

Assays:
[1] = Late stage counterscreen for inhibitors of Trypanosoma brucei methionyl tRNA synthetase (MetRS): Luminescence-based cell-based high throughput dose response assay to identify compounds that are cytotoxic to Jurkat human T lymphocyte cells.; format: functional
[2] = test system: Streptococcus sp. 'group A'; assay: Streptococcus pyogenes SK(-)GAS viability under kanamycin – luminescence, BacTiterGlo, confirmation, counter-screen for streptokinase expression inhibitor project, dose response (AID 1900); format: functional, organism-based
Streptokinase A = biological target: T1, Streptokinase A (Streptococcus pyogenes serotype M1, UniProt P10520); assay: viability-normalized secreted streptokinase activity reduction – plasminogen activation absorbance, OD405, dose response (AID 1914); format: functional, Streptococcus pyogenes M1 GAS;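 note: secreted streptokinase activity via plasminogen activation per viability signal from cell pellet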
T1 sequence (P10520 whole entry): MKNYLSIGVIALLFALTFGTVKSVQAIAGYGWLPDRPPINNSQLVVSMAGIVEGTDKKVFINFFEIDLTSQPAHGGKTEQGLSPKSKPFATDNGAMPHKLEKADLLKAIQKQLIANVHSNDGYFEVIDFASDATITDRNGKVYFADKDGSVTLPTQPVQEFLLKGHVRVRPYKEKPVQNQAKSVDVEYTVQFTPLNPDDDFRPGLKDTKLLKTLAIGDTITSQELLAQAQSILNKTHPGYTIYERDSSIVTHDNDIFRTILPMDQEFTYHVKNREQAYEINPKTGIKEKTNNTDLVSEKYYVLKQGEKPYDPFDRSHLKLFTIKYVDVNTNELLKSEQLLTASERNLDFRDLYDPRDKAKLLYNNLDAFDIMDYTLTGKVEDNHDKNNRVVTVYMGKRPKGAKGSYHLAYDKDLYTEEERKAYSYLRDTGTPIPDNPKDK

Streptococcus = assay: GAS UMAA2166 growth inhibition – luminescence, BacTiterGlo, counter-screen for streptokinase expression inhibitor project, dose response (AID 1915); format: functional, organism-based;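 note: potency for reduction of bacterial viability or growth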
Caspase-3 = biological target: T2, Caspase-3 (Homo sapiens, UniProt P42574); format: functional;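 note: Dose-response selectivity test against caspase-3 for candidate inhibitors of sentrin-specific proteases (SENPs)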
T2 sequence (P42574 whole entry): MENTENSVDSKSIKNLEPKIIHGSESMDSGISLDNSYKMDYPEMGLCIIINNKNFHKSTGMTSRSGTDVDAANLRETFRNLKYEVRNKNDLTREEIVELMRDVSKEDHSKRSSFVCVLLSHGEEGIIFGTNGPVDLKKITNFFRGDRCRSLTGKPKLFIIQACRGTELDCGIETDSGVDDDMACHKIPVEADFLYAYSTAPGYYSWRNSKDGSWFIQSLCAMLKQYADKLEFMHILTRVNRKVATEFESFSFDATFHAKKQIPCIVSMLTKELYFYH

[3] = biological target: T3, Sentrin-specific protease 7 (Homo sapiens, UniProt Q9BQF6); format: functional;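 note: Luminescence-based dose-response confirmation of ultra-high-throughput screening hits, measuring inhibition of SENP7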
T3 sequence (Q9BQF6 whole entry): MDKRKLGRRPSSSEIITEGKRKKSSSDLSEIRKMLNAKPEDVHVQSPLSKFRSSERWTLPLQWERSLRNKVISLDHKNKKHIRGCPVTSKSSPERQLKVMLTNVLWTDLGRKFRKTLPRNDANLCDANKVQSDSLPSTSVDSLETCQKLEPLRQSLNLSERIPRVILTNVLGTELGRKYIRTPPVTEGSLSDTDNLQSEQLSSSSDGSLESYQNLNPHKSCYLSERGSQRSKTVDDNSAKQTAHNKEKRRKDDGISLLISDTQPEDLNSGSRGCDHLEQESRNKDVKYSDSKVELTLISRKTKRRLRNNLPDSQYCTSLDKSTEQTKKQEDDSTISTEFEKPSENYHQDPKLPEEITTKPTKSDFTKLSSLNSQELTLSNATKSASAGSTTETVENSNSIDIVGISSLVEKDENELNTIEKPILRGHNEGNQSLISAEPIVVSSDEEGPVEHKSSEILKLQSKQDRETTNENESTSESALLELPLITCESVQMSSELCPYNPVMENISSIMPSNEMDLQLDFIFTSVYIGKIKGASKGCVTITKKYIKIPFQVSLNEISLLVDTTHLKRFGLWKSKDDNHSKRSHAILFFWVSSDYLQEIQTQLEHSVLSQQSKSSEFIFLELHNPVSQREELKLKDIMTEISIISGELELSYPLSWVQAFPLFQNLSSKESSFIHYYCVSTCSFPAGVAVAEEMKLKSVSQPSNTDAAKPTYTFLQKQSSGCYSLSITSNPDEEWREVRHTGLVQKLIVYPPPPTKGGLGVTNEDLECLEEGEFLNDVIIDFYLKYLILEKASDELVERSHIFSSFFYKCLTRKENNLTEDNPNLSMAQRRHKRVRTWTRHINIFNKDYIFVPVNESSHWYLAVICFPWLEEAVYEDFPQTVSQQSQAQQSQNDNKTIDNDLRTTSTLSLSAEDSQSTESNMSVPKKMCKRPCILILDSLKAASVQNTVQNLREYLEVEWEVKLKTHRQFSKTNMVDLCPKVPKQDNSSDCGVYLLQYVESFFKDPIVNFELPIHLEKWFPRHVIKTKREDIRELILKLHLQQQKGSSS

[4] = biological target: T4, Sentrin-specific protease 6 (Homo sapiens, UniProt Q9GZR1); format: functional;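 note: Luminescence-based dose-response confirmatory assay of SENP6 inhibition, following up an ultra-high-throughput screen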
T4 sequence (Q9GZR1 whole entry): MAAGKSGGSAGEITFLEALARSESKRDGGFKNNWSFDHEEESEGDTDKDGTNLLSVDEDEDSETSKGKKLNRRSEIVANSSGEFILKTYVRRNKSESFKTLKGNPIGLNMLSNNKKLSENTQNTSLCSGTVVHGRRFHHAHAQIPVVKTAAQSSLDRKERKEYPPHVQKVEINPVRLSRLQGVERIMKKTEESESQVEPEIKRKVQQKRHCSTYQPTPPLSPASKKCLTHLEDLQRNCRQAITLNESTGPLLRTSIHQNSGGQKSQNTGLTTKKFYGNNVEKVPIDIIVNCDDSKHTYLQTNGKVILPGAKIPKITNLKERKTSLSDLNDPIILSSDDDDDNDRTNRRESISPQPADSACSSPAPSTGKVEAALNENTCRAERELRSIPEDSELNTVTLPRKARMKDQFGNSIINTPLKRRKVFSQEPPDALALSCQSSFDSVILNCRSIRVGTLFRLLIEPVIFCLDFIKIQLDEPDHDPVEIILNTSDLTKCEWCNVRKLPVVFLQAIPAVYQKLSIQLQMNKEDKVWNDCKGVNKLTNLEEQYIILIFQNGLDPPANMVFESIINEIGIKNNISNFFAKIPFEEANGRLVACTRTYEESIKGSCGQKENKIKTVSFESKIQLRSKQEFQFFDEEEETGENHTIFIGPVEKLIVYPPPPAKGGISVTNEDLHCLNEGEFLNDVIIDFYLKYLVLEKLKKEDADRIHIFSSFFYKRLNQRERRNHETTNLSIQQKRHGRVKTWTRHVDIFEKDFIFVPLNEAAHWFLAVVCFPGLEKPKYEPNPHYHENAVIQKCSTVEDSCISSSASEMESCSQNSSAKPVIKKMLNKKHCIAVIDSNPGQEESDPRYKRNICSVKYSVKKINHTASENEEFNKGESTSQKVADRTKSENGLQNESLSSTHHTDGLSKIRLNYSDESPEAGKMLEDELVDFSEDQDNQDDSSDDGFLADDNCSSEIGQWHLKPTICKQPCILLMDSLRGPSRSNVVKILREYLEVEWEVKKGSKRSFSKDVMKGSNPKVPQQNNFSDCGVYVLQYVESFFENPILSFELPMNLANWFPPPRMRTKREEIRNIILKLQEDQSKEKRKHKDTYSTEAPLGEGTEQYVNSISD

[5] = biological target: T5, Sentrin-specific protease 8 (Homo sapiens, UniProt Q96LD8); format: functional;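 note: luminescence read-out of SENP8 inhibition, dose-response confirmation following an ultra-high-throughput screen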
T5 sequence (Q96LD8 whole entry): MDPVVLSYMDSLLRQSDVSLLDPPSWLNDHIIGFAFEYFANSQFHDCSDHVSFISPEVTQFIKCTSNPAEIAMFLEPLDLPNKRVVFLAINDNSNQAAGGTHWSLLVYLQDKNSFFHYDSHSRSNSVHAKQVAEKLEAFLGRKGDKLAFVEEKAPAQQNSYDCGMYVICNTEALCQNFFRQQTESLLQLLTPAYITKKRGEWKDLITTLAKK

[6] = biological target: T6, Oxysterols receptor LXR-beta (Homo sapiens, UniProt P55055); format: functional, cell-based;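 note: agonist activity at LXR measured by a cell-based luminescence readout across a dose range, run as a counterscreen for daf-12 agonists; HEK293 cells with Gal4-LXR fusion and GAL4-driven luciferase reporter; potency for activation of Gal4-LXR reporter so compounds are agonists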
T6 sequence (P55055 whole entry): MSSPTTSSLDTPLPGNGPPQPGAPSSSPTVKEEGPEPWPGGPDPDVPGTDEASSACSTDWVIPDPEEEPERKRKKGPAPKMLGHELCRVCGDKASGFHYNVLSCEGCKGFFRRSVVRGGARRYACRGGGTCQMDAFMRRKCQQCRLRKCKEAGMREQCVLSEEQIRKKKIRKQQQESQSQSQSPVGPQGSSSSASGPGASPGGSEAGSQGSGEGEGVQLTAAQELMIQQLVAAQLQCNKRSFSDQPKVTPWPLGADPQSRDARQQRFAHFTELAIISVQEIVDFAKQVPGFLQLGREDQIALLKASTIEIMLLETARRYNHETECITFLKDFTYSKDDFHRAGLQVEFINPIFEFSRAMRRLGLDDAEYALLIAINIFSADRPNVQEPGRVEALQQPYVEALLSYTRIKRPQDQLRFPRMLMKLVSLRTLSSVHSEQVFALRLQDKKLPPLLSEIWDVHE

[7] = reduction of Shn3 3'UTR-driven luciferase in osteoblasts – cell-based, Clone20 osteoblasts, firefly luciferase, cherry-picked, dose response (AID 624132); format: functional;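 note: firefly luciferase luminescence from reporter carrying the Shn3 3'UTR in osteoblasts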
[8] = loss of viability in HepG2 cells – cell-based, CellTiter-Glo, cherry-picked, cytotoxicity control for Shn3 inhibitor project, dose response (AID 624134); format: functional
[9] = non-specific 3'UTR reporter inhibition in Clone20-Shn3RL – cell-based, Renilla luciferase, cherry-picked, counter-screen for Shn3 inhibitor project, dose response (AID 624133); format: functional
[10] = biological target: COUP transcription factor 2 (Homo sapiens, UniProt P24468); assay: Luminescence-based cell-based high throughput dose response assay to identify inhibitors of COUP-TFII (NR2F2).; format: functional;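 note: HEK293 cells transiently cotransfected with COUP-TFII expression vector and reporter; luciferase reporter luminescence driven by COUP-TFII from the pX2-168 reporter plasmid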
Sequence of COUP transcription factor 2 (P24468 whole entry): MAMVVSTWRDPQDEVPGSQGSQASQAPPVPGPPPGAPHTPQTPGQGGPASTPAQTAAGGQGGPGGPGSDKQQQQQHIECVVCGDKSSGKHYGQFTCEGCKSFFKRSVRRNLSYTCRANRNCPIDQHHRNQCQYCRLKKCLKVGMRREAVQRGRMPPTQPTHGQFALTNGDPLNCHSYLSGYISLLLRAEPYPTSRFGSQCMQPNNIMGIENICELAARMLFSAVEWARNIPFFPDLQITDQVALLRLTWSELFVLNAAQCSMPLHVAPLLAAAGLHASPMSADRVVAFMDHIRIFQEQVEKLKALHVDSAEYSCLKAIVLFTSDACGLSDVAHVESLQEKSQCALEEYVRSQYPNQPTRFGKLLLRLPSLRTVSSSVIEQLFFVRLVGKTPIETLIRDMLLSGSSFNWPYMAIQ

## O=C(CC=NOCc1ccc([N+](=O)[O-])cc1)Nc1ccc(Cl)cc1
[1]
  IC50: > 83.3 µM (inactive)

## O=c1c2cc(-c3ccccc3)sc2nc2n1CCC2
[2]
  EC50: 11.3 µM (active)
Streptokinase A
  EC50: > 150 µM (not active)
Streptococcus
  EC50: > 150 µM (not active)
Caspase-3
  IC50: 5.94 µM (active)
[3]
  IC50: 6.17 µM (active)
[4]
  IC50: 20.8 µM (active)
[5]
  IC50: 10.9 µM (active)
[6]
  EC50: > 67.5 µM (inactive)

## OC[C@@H]1CN(Cc2ccc(-c3ccccc3)cc2)C[C@H](n2cnc3c(NCc4ccc(F)cc4)ncnc32)O1
[7]
  AC50: 1.58 µM (active)
[8]
  AC50: 64.5 µM (active)
[9]
  AC50: 4.44 µM (active)
[10]
  IC50: 8.22 µM (active)
